The values that follow come from US20080221132A1, “Multi-Functional Small Molecules as Anti-Proliferative Agents” (priority 2006, published 2008).

One data set relates to Lung_H1703. In words: Cell proliferation assay (ATPlite), H1703. It counts as cell-based. The settings on record: Homo sapiens, NCI-H1703; TABLE C; 72 hours, 0.5% fetal bovine serum, ATP content; read-out: IC50 grading, Lung_H1703. The method, then: (§1) A representative number of compounds were assayed against several different cell lines using the cell proliferation assay:
(§2) Cell Proliferation Assay:
(§3) Cancer cell lines were plated at 5,000 to 10,000 per well in 96-well flatted bottomed plates with various concentration of compounds. The cells were incubated with compounds for 72 hours in the presence of 0.5% of fetal bovine serum. Growth inhibition was accessed by adenosine triphosphate (ATP) content assay using Perkin Elmer ATPlite kit. ATPlite is an ATP monitoring system based on firefly luciferase. Briefly, 25 μl of mammalian cell lysis solution was added to 50 μl of phenol red-free culture medium per well to lyse the cells and stabilize the ATP. 25 μl of substrate solution was then added to the well and subsequently the luminescence was measured.

A further data set deals with Lung_H1975. In words: Cell proliferation assay (ATPlite), H1975. The settings on record: Homo sapiens, NCI-H1975; TABLE C; 72 hours, 0.5% fetal bovine serum, ATP content; read-out: IC50 grading, Lung_H1975. It counts as cell-based. The method, then:
as §1, §2, §3

In the next data set the test system is Pancreas_MiaPaCa2. In words: Cell proliferation assay (ATPlite), MiaPaCa2. It counts as cell-based. The settings on record: Homo sapiens, MIA PaCa-2; TABLE C; 72 hours, 0.5% fetal bovine serum, ATP content; read-out: IC50 grading, Pancreas_MiaPaCa2. As to the method:
as §1, §2, §3
(Cellular ATP, detected with luciferase, serves as a proxy for viable cell number.)

Data set [1] deals with Breast_MCF7 (MCF-7, breast adenocarcinoma). The experiment in a line: Cell proliferation assay (ATPlite), MCF7. It counts as cell-based. The settings on record: Homo sapiens, TABLE C, 72 hours, 0.5% fetal bovine serum, ATP content, read-out: IC50 grading, Breast_MCF7. The method, then: as §1, §2
(§4) Cancer cell lines were plated at 5,000 to 10,000 per well in 96-well flatted bottomed plates with various concentration of compounds. […] Growth inhibition was accessed by adenosine triphosphate (ATP) content assay using Perkin Elmer ATPlite kit. ATPlite is an ATP monitoring system based on firefly luciferase. Briefly, 25 μl of mammalian cell lysis solution was added to 50 μl of phenol red-free culture medium per well to lyse the cells and stabilize the ATP. 25 μl of substrate solution was then added to the well and subsequently the luminescence was measured.

Data set [2] has as its system Breast_MDAMB468 (MDA-MB-468, breast adenocarcinoma). The experiment in a line: Cell proliferation assay (ATPlite), MDA-MB-468. In kind it is cell-based. The settings on record: Homo sapiens, TABLE C, 72 hours, 0.5% fetal bovine serum, ATP content, read-out: IC50 grading, Breast_MDAMB468. The method, then: as §1, §2, §4
The conditions of data set [3]: male, CD-1, mouse, in vivo, ip, 7 days.
Procedure: 7-day-multiple dosing MTD in mice • a. CD-1 mice, male, 24-26 gram • b. Dosing at 0, 50, 100, 200 mg/kg/d ip • c. 6 mice per group • d. Blood and organs will be collected 2 hr after last dosing on Day 7 for hematology
Stock solution is diluted with 30% CAPTISOL before use.
In another data set the test system is Pancreas_PANC1. The experiment in a line: Cell proliferation assay (ATPlite), PANC1. It counts as cell-based. The settings on record: Homo sapiens, PANC-1; TABLE C; 72 hours, 0.5% fetal bovine serum, ATP content; read-out: IC50 grading, Pancreas_PANC1. The method, then:
as §1, §2, §3

A further data set concerns Pancreas_CFPAC. The experiment in a line: Cell proliferation assay (ATPlite), CFPAC. The settings on record: TABLE C; 72 hours, 0.5% fetal bovine serum, ATP content; read-out: IC50 grading, Pancreas_CFPAC. In kind it is cell-based. As to the method:
as §1, §2, §3

What is called IC50 is the concentration at which inhibition is half-maximal. With `C#Cc1cccc(Nc2ncnc3cc(OC)c(OCCCCCCC(=O)NO)cc23)c1` [Compound 12], the IC50 is 100 to 1000 nM in the data set with Lung_H1703; 100 to 1000 nM in the data set with Lung_H1975; 100 to 1000 nM with Pancreas_MiaPaCa2; less than 100 nM in data set [1]; less than 100 nM in data set [2]; 100 to 1000 nM in the data set with Pancreas_PANC1. In the data set on Pancreas_CFPAC, the IC50 lay within 100 to 1000 nM. Also, the “dose without significant change in body weight” value in data set [3] is on record as “up to 100 mg/kg”.
